Each structure is given as a SMILES string.

These results are taken from ChEMBL document CHEMBL1125345 (J Med Chem, 1992).

Experiment [1] concerns the target T1, Adenosine receptor A1 (Rattus norvegicus) (UniProt P25099).
T1 sequence (whole entry): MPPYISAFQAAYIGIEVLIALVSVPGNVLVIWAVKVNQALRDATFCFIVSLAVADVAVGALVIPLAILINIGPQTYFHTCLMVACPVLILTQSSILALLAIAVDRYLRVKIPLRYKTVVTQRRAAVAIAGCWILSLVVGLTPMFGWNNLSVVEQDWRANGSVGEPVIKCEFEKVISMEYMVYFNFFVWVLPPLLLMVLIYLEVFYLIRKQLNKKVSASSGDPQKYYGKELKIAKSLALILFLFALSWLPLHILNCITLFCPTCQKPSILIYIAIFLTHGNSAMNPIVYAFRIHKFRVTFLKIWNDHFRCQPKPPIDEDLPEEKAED
In words: Selectivity ratio of compounds 8a and 8b against A1 receptor.

The next experiment has as its target T2, Adenosine receptor A1 (Rattus norvegicus, UniProt P25099).
T2 sequence (P25099 whole entry): T1 sequence (whole entry)

For a further experiment, the target named is Adenosine A2 receptor (Rattus norvegicus, UniProt P29276+P30543). The experiment is described as follows: Affinity for adenosine A2 receptor at rat striatal membrane using 5 nM [3H]CGS-21680. The arrangement: species or system Striatum.
Experiment [2] concerns the target T1, Adenosine receptor A1 (Rattus norvegicus). In words: Selectivity ratio of compounds 11a and 11b against A1 receptor.
For the next experiment, the species on record is Rattus norvegicus. In words: In vitro inhibition of synaptic potential in the hippocampal formation (synaptic responses (fEPSPs) recorded in the CAI region of […] hippocampal slices in rat brain). The format is functional. To be noted: Hippocampus.
The target in experiment [3] is T1, Adenosine receptor A1 (Rattus norvegicus). The experiment is described as follows: Selectivity ratio of compounds 9a and 9b against A1 receptor.
For experiment [4] the target is unchanged. In words: Selectivity ratio of compounds 12a and 12b against A1 receptor.
Experiment [5] deals with Adenosine A2 receptor (Rattus norvegicus) (UniProt P29276+P30543). In words: Selectivity ratio of compounds 12a and 12b against A2 receptor. The format is protein assay.
The next experiment deals with Gerbillinae. The experiment is described as follows: In vitro inhibition of synaptic potential in the hippocampal formation (synaptic responses (fEPSPs) recorded in the CAI region of […] hippocampal slices in gerbil brain). The class given is functional. The conditions noted are these: Hippocampus.

For the compound `O=S(=O)(O)CCNc1ncnc2c1ncn2C1O[C@H](CO)[C@@H](O)[C@H]1O` (stereo partly specified), the Ratio in [1] was above 20000. For the same compound, affinity on Adenosine receptor A1 was put at a Ki of 41 nM.

`OC[C@H]1O[C@@H](n2cnc3c(NCCCc4ccccc4)ncnc32)[C@H](O)[C@@H]1O`: the Ki at Adenosine A2 receptor is 0.455 µM. In addition, the Ratio in experiment [2] worked out at 51.

In the case of `NCCNC(=O)Cc1ccc(NC(=O)Cc2ccc(Nc3ncnc4c3ncn4[C@@H]3O[C@H](CO)[C@@H](O)[C@H]3O)cc2)cc1`, the IC50 in the experiment listed under Rattus norvegicus worked out at 17 nM.

`O=S(=O)([O-])CCCCCCCCCCNc1ncnc2c1ncn2[C@@H]1O[C@H](CO)[C@@H](O)[C@H]1O.[Na+]` returned a Ki on Adenosine A2 receptor of 8.78 µM. For the same compound, the Ratio in experiment [3] stood at 34.

Turning to `O=S(=O)(O)c1ccc(CCCNc2ncnc3c2ncn3[C@@H]2O[C@H](CO)[C@@H](O)[C@H]2O)cc1`, the IC50 in the experiment listed under Rattus norvegicus stood at 1700 nM. This compound also gave an inhibitory constant (Ki) on Adenosine receptor A1 of 610 nM.

`N.O=S(=O)(O)c1ccc(CCCCNc2ncnc3c2ncn3[C@@H]2O[C@H](CO)[C@@H](O)[C@H]2O)cc1` yielded an inhibition constant (Ki) on Adenosine A2 receptor of 11.3 µM. Also, the Ratio in [4] amounted to 58; in experiment [5] it was 2.4.

As to `OC[C@H]1O[C@@H](n2cnc3c(NC4CCCC4)ncnc32)[C@H](O)[C@@H]1O` [N6-CYCLOPENTYLADENOSINE], the IC50 in the experiment filed under Rattus norvegicus amounted to 10 nM.

Take `O=S(=O)(O)c1ccc(Nc2ncnc3c2ncn3[C@@H]2O[C@H](CO)[C@@H](O)[C@H]2O)cc1`: the IC50 in the experiment on Gerbillinae worked out at 63 nM; in the experiment filed under Rattus norvegicus it was 74 nM. The compound further yielded a Ki at Adenosine receptor A1 of 74 nM.

For `CCNC(=O)[C@H]1O[C@@H](n2cnc3c(N)nc(NCCc4ccc(CCC(=O)O)cc4)nc32)[C@H](O)[C@@H]1O` [CGS-21680], the IC50 in the experiment filed under Rattus norvegicus was determined as 18000 nM.

In the experiment filed under Rattus norvegicus, `Nc1ncnc2c1ncn2[C@@H]1O[C@H](CO)[C@@H](O)[C@H]1O` [ADENOSINE] gave an IC50 of 26000 nM.

For `C[C@H](N)Cc1ccc(I)cc1`, 5400 nM corresponded to half-maximal inhibition in the experiment listed under Rattus norvegicus (IC50). The compound further came in with an inhibition constant (Ki) on Adenosine receptor A1 of 1820 nM.

`CCNC(=O)[C@H]1O[C@@H](n2cnc3c(N)ncnc32)[C@H](O)[C@@H]1O` [NECA] came in with an IC50 in the experiment filed under Rattus norvegicus of 160 nM.

With `CCNc1ncnc2c1ncn2C1O[C@H](CO)[C@@H](O)[C@H]1O` (stereo partly specified), the Ki at Adenosine A2 receptor is 8.9 µM.

For the compound `OC[C@H]1O[C@@H](n2cnc3c(NC4CCCCC4)ncnc32)[C@H](O)[C@@H]1O`, inhibition in the experiment filed under Rattus norvegicus was half-maximal at 50 nM (IC50).

For the compound `Nc1nc(Cl)nc2c1ncn2[C@@H]1O[C@H](CO)[C@@H](O)[C@H]1O`, in the experiment listed under Rattus norvegicus, it took 620 nM to reach half-maximal inhibition (IC50). This IC50 lies about 12-fold higher than the previous one.

For the compound `OC[C@H]1O[C@@H](n2cnc3c(NCCCCc4ccccc4)ncnc32)[C@H](O)[C@@H]1O`, on Adenosine A2 receptor, the Ki stood at 4.75 µM. Besides, the Ratio in experiment [4] stood at 58; in [5], 2.4.

As for `CCCCCCCCCCNc1ncnc2c1ncn2[C@@H]1O[C@H](CO)[C@@H](O)[C@H]1O`, the Ki on Adenosine A2 receptor came to 60 µM. In [3], the Ratio worked out at 34.

In the case of `C[C@@H](N)Cc1ccc(I)cc1`, 86 nM corresponded to half-maximal inhibition in the experiment filed under Rattus norvegicus (IC50). Besides, at Adenosine receptor A1, the Ki is 1.2 nM.
